{"source": "paper PMC11768370", "about": "“Etodolac Single Dose Metabolic Profile Elucidation: Pharmacokinetics and Adverse Events in Healthy Volunteers” (Pharmaceuticals, 2025)", "key": {"[1]": {"system": "plasma metabolites", "assay": "Untargeted plasma metabolomic profile pre-dose (T0) vs post-dose (Tmax), UPLC-QToF", "format": "in vivo, human", "details": "healthy volunteers, single dose 500 mg", "experimental": "Samples were collected at two times: (i) baseline samples (time 0 h), termed the pre-dose group, and (ii) samples at maximum drug concentration (Cmax), termed the post-dose group. Samples were randomized, and 25 μL of each was collected to form a pooled sample for quality control (QC). An aliquot of plasma (200 μL) was extracted by adding cold methanol (400 μL) for protein precipitation. The samples were then vortexed for 30 s and centrifuged at 12,879× g for 10 min at 4 °C. Finally, the supernatant (400 μL) was collected and dried over a stream of nitrogen gas (N2). Samples were resuspended with 200 µL of acetonitrile (ACN)/water (H2O) (1:1 v/v). Sample extraction and analysis were randomized to reduce instrumental and biological bias. QC samples were analyzed every 10 samples to check for variations in extraction and system stability.\nThe analysis was adapted and performed on an ACQUITY® FTN H Class (Waters, Newcastle, UK) liquid chromatography (UPLC) coupled to a XEVO-G2XS (QToF) quadrupole time-of-flight mass spectrometer (UPLC-QToF) (Waters, Manchester, UK) equipped with an electrospray ionization (ESI) source operated in the positive and negative ionization mode, separately. An ACQUITY UPLC ® CSH C18 column (2.1 mm × 100 mm × 1.7 µm, Waters, Newcastle, UK) was employed as a stationary phase. […]"}, "[2]": {"design": "method as in PMID 36959150", "details": "cited from earlier work"}}}
{"smiles": "CCc1cccc2c3c([nH]c12)C(CC)(CC(=O)O)OCC3", "note": "(stereo not shown) [Etodolac]", "values": [{"measurement": "6-ketoprostaglandin E1 relative abundance at Tmax compared to T0", "setting": "[1]", "value": "increases twist time in relative abundance"}, {"measurement": "15-epi-lipoxin A4 relative abundance at Tmax compared to T0", "setting": "[1]", "value": "increases in relative abundance"}, {"measurement": "solubility", "setting": "[2]", "value": "poor solubility"}, {"measurement": "Biopharmaceutics Classification System class", "setting": "[2]; dissolution rate-dependent absorption", "value": "BCS class II"}]}
